Literature values in US6921840B1 (The Trustees of the University of Pennsylvania, priority 1999, dated 2005).

Conditions: at 2 to 6 hr, Biegon et al. 1993; cited from earlier work

In the case of `O=[N+]([O-])c1ccc2nc(N3CCNCC3)ccc2c1I` [[^123I]5-I-6-NO2-quipazine, 5-iodo-6-nitroquipazine], the “specific regional binding ratio, hypothalamus” value is listed as 4.0.
